Experimental data reported in patent publication US12624068B2, “Exon skipping by peptide nucleic acid derivatives” (OliPass Corporation, priority 2016, dated 2026).
[C(1O2)] = modified PNA monomer acting as cytosine, C(pOq) type, 1O2; [A(5)] = modified PNA monomer acting as adenine, A(p) type, p=5; [A(6)] = modified PNA monomer acting as adenine, A(p) type, p=6; [G(5)] = modified PNA monomer acting as guanine, G(p) type, p=5; {Fethoc} = N-terminal Fethoc cap; {NH2} = C-terminal amide

Key:
full-length SNAP25 mRNA = experiment: SNAP25 nested qPCR in PC12 cells; assay type: cell-based, rat
Description: [Cell Culture & ASO Treatment] PC12 cells grown in 60 mm culture dish containing 5 mL culture medium were treated with “SNAP-ASO 3” at 0 (negative control), 10, 100 or 1,000 zM. (2 culture dishes per ASO concentration) [RNA Extraction & cDNA Synthesis by One-step RT-PCR] Following an incubation with “SNAP-ASO 3” for 42 hours, the cells were treated 100 μg/mL cycloheximide for another 6 hours to freeze the ribosomal translation. Then total RNA was extracted from cells using “Universal RNA Extraction Kit” (Cat. Number 9767, Takara) according to the manufacturer's instructions. […] NO: 130); and SNAP-exon 14_reverse: (5'→3') […] [Nested qPCR Amplification] […] NO: 132); and SNAP-exon 8q_reverse: (5'→3') […] The qPCR reaction was followed with a Taqman probe of [(5'→3') 5,6-[…] NO: 134)] targeting the junction of exon 7 and exon 8 in order to quantify the full-length SNAP25 mRNA.

10-mer complementary DNA = experiment: Tm between PNA derivatives and 10-mer complementary DNA (N- or C-terminal); assay type: binding; details: uncorrected
Outline: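 4 μM 10-mer PNA with 4 μM complementary 10-mer DNA in pH 7.16 buffer (10 mM sodium phosphate, 100 mM NaCl) was heated at 90 °C for a minute, slowly cooled to ambient, then Tm measured by UV absorbance at 260 nm.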

[1] = test system: full-length human SNAP25 mRNA; experiment: SNAP25 qPCR in SiMa cells; assay type: cell-based; details: 100 aM
Description: [Cell Culture & ASO Treatment] SiMa cells were grown in 60 mm culture dish containing 5 mL culture medium, and were treated with “SNAP-ASO 3” at 0 zM (negative control), 1 zM, 10 zM, 100 zM or 1 aM, 10 aM, or 100 aM. (2 culture dishes per ASO concentration) [RNA Extraction & cDNA Synthesis] Total RNA was extracted from cells using “RNeasy Mini Kit” (Cat. Number 74106, Qiagen) according to the manufacturer's instructions. […] [qPCR Amplification] The PCR reactions were monitored with a Taqman probe [(5' 3') 56-[…] NO: 137)] targeting the junction of exon 6 and exon 7 against a set of exon-specific primers [SNAP-exon 6_forward: (5'→3') […] NO: 138); and SNAP-exon 8_reverse(2): (5'→3') […] NO: 139)].

rat SNAP25 pre-mRNA = experiment: SNAP25 nested PCR for exon skipping in PC12 cells; assay type: cell-based
Description: PC12 cells were maintained in RPMI 1640 medium supplemented with 5% FBS, 10% horse serum, 1% streptomycin/penicillin, 1% L-glutamine, and 1% sodium pyruvate under 5% CO2 atmosphere at 37° C. Cells grown in 60 mm culture dish containing 5 mL culture medium were treated with “SNAP-ASO 3” at 0 (negative control), 10, 100 or 1,000 zM. [RNA Extraction & cDNA Synthesis by One-step PCR] Following an incubation with “SNAP-ASO 3” for 42 hours, the cells were treated with 100 μg/mL cycloheximide for another 6 hours in order to freeze the ribosomal translation. Then total RNA was extracted using “Universal RNA Extraction Kit” (Cat. Number 9767, Takara) according to the manufacturer's instructions. […] NO: 126); and SNAP-exon 14_reverse: (5'→3') […] [Nested PCR Amplification] […] NO: 128); SNAP-exon 14n_reverse: (5'→3') […] [Identification of Exon Skipping Products] The PCR products were subjected to electrophoretic separation on a 2% agarose gel. The bands of target size were collected and analyzed by Sanger Sequencing.

mdx mice [2] = experiment: Walking distance on tread mill in mdx mice; assay type: in vivo, mouse; details: first 30 weeks, injection solutions without Tween 80
Description: “DMD-ASO 2” was chronically administered to mdx mice to evaluate its ability to improve muscle function by the walking distance on tread mill, and to inhibit the muscle degradation by the serum levels of creatine kinase (CK) and myoglobin.
[Animals & Grouping] Male mdx mice (6 weeks old) were randomly assigned to three groups of the mdx negative control (no ASO treatment), “DMD-ASO 2” 10 pmole/Kg, and “DMD-ASO 2” […] based on the body weight. (N=16 per group) 12 male C57BL/6 mice (6 weeks old) were adopted as the wild type (WT) negative control group.
[Injection Solutions & ASO Treatment] An aqueous mother stock solution of “DMD-ASO 2” was diluted either in PBS or in PBS supplemented with 0.1% Tween 80 to prepare injection solutions of […] “DMD-ASO 2” for 10 pmole/Kg and 30 pmole/Kg “DMD-ASO 2”, respectively. Supplementation of PBS injection solution with 0.1% Tween 80 was considered to be necessary to prevent the ASO molecules from sticking to plastic injection vials, pipette tips, and syringes.
[Walking Distance on Tread Mill] During the first 30 weeks post grouping, the animals were administered with the injection solutions without Tween 80 2× per week at 2 mL/Kg. Starting from Week 7, the animals were subjected to walking on a tread mill (Model #LE8710, PanLab) on a weekly basis. […]

mdx mice [3] = experiment: Unscheduled death, sacrifice or lymphoma in chronically treated mdx mice; assay type: in vivo, mouse; details: DMD-ASO 1 50 pmole/Kg, DMD-ASO 2 or DMD-ASO 6 10 pmole/Kg, subcutaneous 2× per week, 66 weeks
Text: [Grouping & ASO Treatment] Male mdx mice (7 weeks old) were randomly assigned to 4 groups of 0 (mdx negative control), 10, 50, and 200 pmole/Kg “DMD-ASO 1” based on individual grip strength scores by grip test. (N=12 per group) A satellite group of 12 male C57BL/6 mice (7 weeks old) was included in this study as the wild type negative control group for the full-length dystrophin expression level.
The 50 and 200 pmole/Kg group subcutaneously received “DMD-ASO 1” as dissolved in PBS, 2× per week until the final sacrifice in Week 43. In the meantime, the 10 pmole/Kg group subcutaneously received “DMD-ASO 1” initially 2× per week during Week 0 to 8, and 3× per week afterwards to increase the ASO exposure.
[Miscellaneous Findings] There were three cases of unscheduled sacrifice or death (Weeks 26, 39 and 43) in the mdx negative control group due to a large mass of muscular lymphoma developed most likely by chronic muscular inflammation.
“DMD-ASO 1”, “DMD-ASO 2” and “DMD-ASO 6” were evaluated for their physiological effects in male mdx mice by long term subcutaneous administration. In this evaluation the animals were not subjected to physical tests requiring muscular stress in order to keep the transcription of the dystrophin gene undisturbed by excessive muscular stimulation.
[Animals & Grouping] Male mdx mice (6 weeks old) were randomly assigned to 4 groups of the mdx negative control (no ASO treatment), “DMD-ASO 1” 50 pmole/Kg, “DMD-ASO 2” […], and “DMD-ASO 6” […] based on the body weight. (N=12-13 per group) 12 male C57BL/6 mice (6 weeks old) were adopted as the wild type (WT) negative control group.
[Injection Solutions & ASO Treatment] Aqueous mother stock solutions of the ASOs were serially diluted in PBS to prepare the injection solutions of 25 nM “DMD-ASO 1” for 50 pmole/Kg “DMD-ASO 1”, 5 nM “DMD-ASO 2” for “DMD-ASO 2” 10 pmole/Kg, and 5 nM “DMD-ASO 6” for “DMD-ASO 6” 10 pmole/Kg. The animals were subcutaneously administered with the injection solutions at 2 mL/Kg, 2× per week.

[4] = test system: serum creatine kinase (CK); experiment: Serum creatine kinase level in mdx mice; assay type: in vivo; details: Week 48
Description: (§1) [Terminal Sacrifice] In Week 48, the animals were subjected to terminal sacrifice for blood sampling. The blood samples were analyzed for the serum level of CK (Creatine Kinase Activity Assay Kit, Cat. Number ab155901, Abcam) and myoglobin (Myoglobin ELISA Kit, Cat. Number ab210965, Abcam) to assess the degree of muscle degradation according to the manufacturer's instructions. Muscle tissues were analyzed by western blot for the full-length dystrophin.
(§2) [Terminal Sacrifice] All the survived animals were sacrificed for blood sampling in Week 66 post the grouping. The blood samples were subjected to ELISA assays for serum creatine kinase (CK) and serum myoglobin as described in “DMD Example 6”.

serum myoglobin = experiment: Serum myoglobin level in mdx mice; assay type: in vivo
Description: as §1, §2

full-length dystrophin = experiment: Dystrophin western blot in triceps of mdx mice; assay type: in vivo; details: Week 48
Description: [Full-length Dystrophin Expression in Triceps by Western Blot] Following homogenization at liquid nitrogen temperature, muscle (triceps) samples were subjected to lysis in RIPA buffer supplemented with 1% SDS. The protein concentration in each lysate was quantified by BCA assay against the BSA standard. […] of protein of each lysate was subjected to electrophoretic separation on an 8% PAGE gel. Then the PVDF membrane was probed with a C-terminal targeting dystrophin antibody (Cat. Number ab154168, Abcam).

Substance	decrease of full-length SNAP25 mRNA level (qPCR) (full-length SNAP25 mRNA; PC12 cells, 10 zM)	decrease of full-length SNAP25 mRNA level (qPCR) (full-length SNAP25 mRNA; PC12 cells, 100 zM)	decrease of full-length SNAP25 mRNA level (qPCR) (full-length SNAP25 mRNA; PC12 cells, 1,000 zM)	Tm Value, 10-mer DNA against C-Terminal (10-mer complementary DNA)	Tm Value, 10-mer DNA against N-Terminal (10-mer complementary DNA)	inhibition of full-length human SNAP25 mRNA level (qPCR) [1]	intensity of the full-length SNAP25 mRNA by nested PCR (rat SNAP25 pre-mRNA; PC12 cells, 10, 100 or 1,000 zM)	SNAP25 exon skipping by nested PCR (rat SNAP25 pre-mRNA; PC12 cells, 10 zM, 42 hours then cycloheximide 6 hours)	walking distance on tread mill compared to the mdx negative control group (mdx mice [2])	premature deaths (unscheduled death or sacrifice) (mdx mice [3])	serum CK level smaller than the mdx negative control group by ([4]; 10 pmole/Kg)	serum CK level smaller than the mdx negative control group by ([4]; 30 pmole/Kg)	serum myoglobin level smaller than the mdx negative control group by (serum myoglobin; 10 pmole/Kg, Week 48)	serum myoglobin level smaller than the mdx negative control group by (serum myoglobin; 30 pmole/Kg, Week 48)	serum myoglobin level smaller than the mdx negative control group by (serum myoglobin; DMD-ASO 1 50 pmole/Kg, DMD-ASO 2 or DMD-ASO 6 10 pmole/Kg, 2× per week, Week 66)	130K dystrophin band intensity (western blot, triceps) (full-length dystrophin; 10 pmole/Kg)	117K dystrophin band (western blot, triceps) (full-length dystrophin; 10 and 30 pmole/Kg)
Fethoc-TG(5)T-TA(6)C-C(1O2)CT-GG(5)G-A(5)T-NH2 (antisense TGTTACCCTGGGAT; all peptide nucleic acid (PNA), [G(5)] at 2, 11, [A(6)] at 5, [C(1O2)] at 7, [A(5)] at 13, 5' {Fethoc}, 3' {NH2}; peptide nucleic acid written N to C) [SNAP-ASO 3]	~50%	20%	slightly higher than the level of the cells without ASO treatment	88.7 °C	77.3 °C	40%	decreased most in the cells treated with 10 zM	yielded a faint PCR band assignable to the skipping of exons 5-7	–	–	–	–	–	–	–	–	–
Fethoc-TTG(6)CA(5)G-AG(6)C-C(1O2)TC-AA(5)A-A(5)T-NH2 (antisense TTGCAGAGCCTCAAAAT; Fethoc N-cap, C-terminal amide, chemistry not fully specified) [DMD-ASO 2]	–	–	–	–	–	–	–	–	failed to show any significant improvements	one death in Week 56 and another in Week 62	58%	38%	67%	58%	49%	considerably stronger	markedly stronger
